Source: patent publication US7964598B2 (The J. David Gladstone Institutes, priority 1995, dated 2011)
Several values for one entry are separate records, joined by “and”; a condition that tells them apart may be missing. Equal entries are not always repeated.

Experiments:
apoE3 [1] = experiment: Aβ production assay, B103-APP cells incubated with apoE3; assay type: cell-based, rat; conditions: FIG. 22
Description: (§1) Aβ production assay. Stable neuroblastoma B103 cell lines transfected with a wildtype hAPP cDNA construct (B 103-APP) were selected by growing them in Dulbecco's modified Eagle's medium (DMEM) containing 10% fetal calf serum (FBS) and 400 μg/ml G418. A cell line expressing APP at similar levels in mouse brains has been identified by RNase protection assay (RPA) and was used in the studies described below. To determine Aβ production, B103-APP cells were incubated with serum-free minimal essential medium (MEM) containing N2 supplements with or without apoE isoforms for 24 h at 37° C. After incubation, 50 μl of medium was collected and assayed for Aβ levels with an ELISA method. The cells were lysed, and cellular proteins were determined by the Lowry method. AP production was normalized to cellular protein.
(§2) Cell Culture. Rat neuroblastoma B103 cells stably expressing human wildtype APP (hAPP695wt) (Xu et al. ((1999) Proc. Natl. Acad. Sci. USA 96:7547-7552; Esposito, et al. (2004) J. Neurochem. 91:1260-1274) were generated in Dr. Lennart Mucke's laboratory at the Gladstone Institute of Neurological Disease and maintained in Dulbecco's modified Eagle's medium (DMEM) (GIBCO, Grand Island, N.Y.) containing 400 μg/ml G418, 10% fetal bovine serum, and 5% horse serum at 37° C. Twenty-four hours after plating into 48-well plates (1×10^5 cells per well), cells were washed twice with serum-free DMEM and cultured for another 24 h in DMEM containing 1% N-2 supplement (GIBCO) to induce differentiation. The cells were treated with either β-VLDL (25 μg/ml cholesterol), recombinant human apoE isoform-enriched β-VLDL (7.5 μg/ml apoE and 25 μg/ml cholesterol), or recombinant human apoE (7.5 μg/ml apoE) in fresh DMEM containing 1% N-2 supplement for an additional 24 h. In some experiments, RAP (25 nM or 1 μM) was added to the cells 1 h before apoE treatment.
(§3) Aβ Assay. Aβ secreted into the medium was detected with a sandwich enzyme-linked immunosorbent assay (ELISA), using mAb 266 as a capturing antibody and 3D6 as a detecting antibody, as described. Johnson-Wood et al. ((1997) Proc. Natl. Acad. Sci. USA 94:1550-1555). Aβ was quantified from a standard curve (Aβ42; Bachem, Torrance, Calif.) and normalized by total cellular protein.

[2] = test system: apoE4 enhancement of Aβ production; experiment: Aβ production assay, B103-APP cells incubated with apoE4; assay type: cell-based, rat; conditions: FIG. 22
Description: as §1, §2, §3

apoE4 = biological target: T1, apoE4 (Homo sapiens, UniProt P02649, C130R); experiment: Emulsion binding assay for domain interaction, apoE4; conditions: for E4 + cpd n = 3, % bound / E4 + cpd n = 3, % free / E4 control, % bound / E4 control, % free: follow-up assay; for E4 control, % bound / E4 control, % free: second E4 control; for E4 + cpd, % bound / E4 + cpd, % free: initial assay, 2.5 μl of compound (10 mM stock) in 250 μl, 37° C. 2 hours
T1 construct: made in house
T1 sequence (P02649 19-317 C130R): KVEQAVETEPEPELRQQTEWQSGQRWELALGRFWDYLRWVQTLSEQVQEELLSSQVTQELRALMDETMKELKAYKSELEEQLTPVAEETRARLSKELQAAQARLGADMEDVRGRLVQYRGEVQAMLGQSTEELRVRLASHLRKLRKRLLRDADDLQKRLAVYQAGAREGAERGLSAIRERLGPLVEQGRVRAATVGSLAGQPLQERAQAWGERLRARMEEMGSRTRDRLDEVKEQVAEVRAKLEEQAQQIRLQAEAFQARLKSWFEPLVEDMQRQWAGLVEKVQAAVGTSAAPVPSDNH
Description: (§4) Preparation of emulsion particles. Triolein (160 mg) and L-alpha-Phosphatidylcholine (40 mg) are combined and dried under nitrogen. After the addition of 8 mls of buffer (10 mM Tris, 100 mM KCl, 1 mM EDTA, pH 8.0), the mixture is sonicated in a water bath to obtain a heterogeneous mix of emulsion particles. The particles are harvested by ultracentrifugation (TLA 100.2 rotor, 30,000 rpm for 30 minutes) and the subsequent lipid cake is removed by tube slicing and resuspended in 100 μt 20 mM Phosphate Buffer (PB). Triolein and phospholipid content are measured and total emulsion particle concentration is determined.
(§5) Radiolabelling Freshly denatured and renatured Apolipoprotein E3 and E4 are radiolabelled using Bolton-Hunter Reagent [^125I] (ICN). Specific Activity is determined using Lowry method and Gamma 8000 counter.
(§6) Binding Affinity Assay. […] In glass tubes, 25 μg of protein (with iodinated tracer) was reduced with 1% β-mercaptoethanol. Two hundred and fifty μg of emulsion particles and 2.5 μl of compound (10 mM stock) were added and the final mixture was brought up to 250 μl with 20 mM phosphate buffer (PB). The reaction mixture was then incubated in a 37° C. water bath for 2 hours before being transferred to 1.5 ml ultracentrifuge tubes. Finally, 50 μl of 60% sucrose was mixed with the sample and 400 μl 20 mM PB was carefully layered on top. Using a TLA 100.2 rotor, the tube was spun at 30,000 rpm for 30 minutes and subsequently cut to separate the floating emulsion particle layer from the free protein at the bottom of the tube. These fractions were then combined with the respective half of the actual tube and counted using a Gamma-8000. […] Protein-only assays yielded 94.5-96.6% of protein accumulated in the bottom portion of the tube. In emulsion particle-only assays, 94% of emulsion particles accumulated in the top portion of the tube.
(§7) Preparation of Emulsion Particles and VLDL Binding Affinity Assay. VLDL-like emulsion particles were prepared using triolein (160 mg) and L-alpha-phosphatidylcholine (40 mg), as described. Dong and Weisgraber (1996) supra; and Dong et al. (1994) J. Biol. Chem. 269:22358-22365.

apoE3 [3] = biological target: T2, apoE3 (Homo sapiens, UniProt P02649); experiment: Emulsion binding assay, apoE3; conditions: follow-up assay
T2 construct: made in house
T2 sequence (P02649 19-317): as the sequence (P02649 19-317 C130R) above, with R112C counted along it
Description: as §4, §5, §6, §7

B103-APP cells = experiment: APP processing and Aβ production, B103-APP cells; assay type: cell-based, rat
Description: as §1, §2
In some experiments, cells were treated with lovastatin, as described but with a minor modification. Fassbender et al. (2001) Proc. Natl. Acad. Sci. USA 98:5856-5861. Briefly, cells were maintained in differentiation medium containing 4 μM lovastatin and 0.25 mM mevalonate for 24 h. After treatment for 5 min with 5 mM methyl-β-cyclodextrin, which depletes cell membrane cholesterol (Bodovitz and Klein (1996) J. Biol. Chem. 271:4436-4440; Kojro et al. (2001) Proc. Natl. Acad. Sci. USA 98:5815-5820), the cells were incubated in fresh differentiation medium containing lovastatin and mevalonate for 24 h. The conditioned medium was collected, and cellular cholesterol extracted with chloroform/methanol (Huang et al. (1994) Proc. Natl. Acad. Sci. USA 91:1834-1838) and quantitated with a kit from Abbott Laboratories (Abbott Park, Ill.).
Detection of sAPPα. Media conditioned for 24 hours were normalized by protein content and subjected to SDS/PAGE. Proteins were then transferred onto nitrocellulose membranes. The sAPPα was detected by mAb 6E10 and visualized with an enhanced chemiluminescence system (Pierce, Rockford, Ill.).
as §3

Neuro-2a cells [4] = experiment: Aβ-induced apoptosis (DNA fragmentation assay); assay type: cell-based, mouse
Description: DNA Fragmentation Assay—DNA fragmentation of apoptotic cells was determined with Cell Death Detection ELISA kits (Roche, Indianapolis, Ind.).
FIG. 38. […] Control cells were not treated with Aβ1-42. Apoptotic cell death was measured with a DNA fragmentation assay. Values are the mean±S.D. of three separate experiments.
FIGS. 39A and 39B. […] Lysosomal leakage was quantitated by assaying cytosolic 0-hexosaminidase activity. […] Conditioned media were prepared as described above. Apoptosis was quantitated by measuring DNA fragmentation.

Neuro-2a cells [5] = experiment: Aβ-induced lysosomal leakage (cytosolic β-hexosaminidase); assay type: cell-based, mouse; conditions: 20 μM Aβ1-42
Description: The cytosolic fraction was obtained by ultracentrifugation, and the cytosolic β-hexosaminidase activity was measured.
Quantitation of the lysosomal enzyme β-hexosaminidase activity in the cytosol indicates lysosomal leakage. […] After incubation the cells were washed and cytosolic fractions were isolated as described in Materials and Methods. The enzymatic activity of β-hexosaminidase was assayed in 20 μg of cytosolic protein for each sample.
Lysosomal leakage was quantitated by assaying cytosolic 0-hexosaminidase activity. […] Conditioned media were prepared as described above. Apoptosis was quantitated by measuring DNA fragmentation.

[6] = β-VLDL 25 μg/ml cholesterol or lovastatin 4 μM

## 5-chloro-2-(4-chloro-2-(3,4-dichloro phenylureido) [GIND32]
apoE3 [1]
  effect on apoE3 (Aβ production): no effect
[2]
  apoE4 enhancement of Aβ production: abolished completely
apoE4
  E4 + cpd n = 3, % bound: 57%
  E4 + cpd n = 3, % free: 43%
  E4 control, % bound: 49%
  E4 control, % free: 51%
  E4 + cpd, % bound: 22% and 19%
  E4 + cpd, % free: 78% and 81%
apoE3 [3]
  E3 + compound, % bound: 14%
  E3 + compound, % free: 86%

## O.O=C([O-])c1ccccc1-c1c2cc(I)c(=O)c(I)c-2oc2c(I)c([O-])c(I)cc12.[Na+].[Na+] [Erythrosin B]
apoE4
  E4 + cpd n = 3, % bound: 57%
  E4 + cpd n = 3, % free: 43%
  E4 control, % bound: 26%
  E4 control, % free: 74%
  E4 + cpd, % bound: 11% and 10%
  E4 + cpd, % free: 89% and 90%
apoE3 [3]
  E3 + compound, % bound: 20%
  E3 + compound, % free: 80%

## O=C(N[C@H](Cc1ccc(OCc2ccccc2)cc1)C(=O)O)OCc1ccccc1 [Z-D-Tyr (BZL)-OH]
apoE4
  E4 + cpd n = 3, % bound: 57%
  E4 + cpd n = 3, % free: 43%
  E4 control, % bound: 43%
  E4 control, % free: 57%
  E4 + cpd, % bound: 25% and 23%
  E4 + cpd, % free: 75% and 77%
apoE3 [3]
  E3 + compound, % bound: 26%
  E3 + compound, % free: 74%

## CC[C@H](C)C(=O)O[C@H]1C[C@@H](C)C=C2C=C[C@H](C)[C@H](CC[C@@H]3C[C@@H](O)CC(=O)O3)[C@H]21 [lovastatin, reference compound]
B103-APP cells; [6]
  cellular cholesterol content: lowered
  production of Aβ: decreased
  secretion of sAPPα: increased

## Aβ1-42: Amyloid β1-42, aggregated before use
Neuro-2a cells [4]; apoE3-transfected cells, 20 μM Aβ1-42, 18 h
  DNA fragmentation: 110 % of that in Z-VAD-treated con
Neuro-2a cells [4]; apoE4-transfected cells, 20 μM Aβ1-42, 18 h
  DNA fragmentation: ~250 % of that in Z-VAD-treated con
Neuro-2a cells [4]; neo-transfected cells in apoE3-conditioned medium, 20 μM Aβ1-42, 18 h
  Aβ-induced DNA fragmentation: 202%
Neuro-2a cells [4]; neo-transfected cells in apoE4-conditioned medium, 20 μM Aβ1-42, 18 h
  Aβ-induced DNA fragmentation: 314%
Neuro-2a cells [4]; neo-transfected cells in neo-conditioned medium, 20 μM Aβ1-42, 18 h
  Aβ-induced DNA fragmentation: 232%
Neuro-2a cells [4]; neo-transfected cells, 20 μM Aβ1-42, 18 h
  DNA fragmentation: ~140 % of that in Z-VAD-treated con
Neuro-2a cells [5]; apoE4-transfected cells
  increase of cytosolic β-hexosaminidase activity: ~85%
Neuro-2a cells [5]; neo-transfected cells
  increase of cytosolic β-hexosaminidase activity: ~40%

## Z-VAD
Neuro-2a cells [4]; compared with untreated control cells
  DNA fragmentation, Z-VAD treatment alone: no effect
Neuro-2a cells [4]; pretreatment with Z-VAD 100 μg/ml 2 h, all three cell lines
  Aβ-induced DNA fragmentation: greatly reduced

## apoE4-Thr-61: Thr-61 mutant of apoE4, lacks intramolecular domain interaction
B103-APP cells; 7.5 μg/ml, 37° C., 24 h, compared with apoE3 or apoE4
  enhanced Aβ production: abolished the enhanced Aβ production

## glycine cresol red [GIND29]
apoE3 [1]
  effect on apoE3 (Aβ production): no effect
[2]
  apoE4 enhancement of Aβ production: abolished completely
apoE4
  E4 + cpd n = 3, % bound: 57%
  E4 + cpd n = 3, % free: 43%
  E4 control, % bound: 48%
  E4 control, % free: 52%
  E4 + cpd, % bound: 23% and 29%
  E4 + cpd, % free: 77% and 71%
apoE3 [3]
  E3 + compound, % bound: 33%
  E3 + compound, % free: 67%
